Active and inactive are the calls of the source. The rule behind the calls is not given here.
Test system: CCRIS mutagenicity, Ames/micronucleus/aberration tests
Assay: CCRIS mutagenicity studies
[1] = Test System: AMES SALMONELLA TYPHIMURIUM, Strain/Indicator: TA97, Metabolic Activation: HAMSTER, LIVER, S-9, AROCLOR 1254 (10 OR 30%), Method: PREINCUBATION
[2] = Test System: AMES SALMONELLA TYPHIMURIUM, Strain/Indicator: TA97, Metabolic Activation: NONE, Method: PREINCUBATION
[3] = Test System: AMES SALMONELLA TYPHIMURIUM, Strain/Indicator: TA97, Metabolic Activation: RAT, LIVER, S-9, AROCLOR 1254 (10 OR 30%), Method: PREINCUBATION
[4] = Test System: AMES SALMONELLA TYPHIMURIUM, Strain/Indicator: TA98, Metabolic Activation: HAMSTER, LIVER, S-9, AROCLOR 1254 (30%), Method: PREINCUBATION
[5] = Test System: AMES SALMONELLA TYPHIMURIUM, Strain/Indicator: TA98, Metabolic Activation: NONE, Method: PREINCUBATION
[6] = Test System: AMES SALMONELLA TYPHIMURIUM, Strain/Indicator: TA100, Metabolic Activation: HAMSTER, LIVER, S-9, AROCLOR 1254 (30%), Method: PREINCUBATION
[7] = Test System: AMES SALMONELLA TYPHIMURIUM, Strain/Indicator: TA100, Metabolic Activation: NONE, Method: PREINCUBATION
[8] = Test System: AMES SALMONELLA TYPHIMURIUM, Strain/Indicator: TA100, Metabolic Activation: RAT, LIVER, S-9, AROCLOR 1254 (30%), Method: PREINCUBATION
[9] = Test System: AMES SALMONELLA TYPHIMURIUM, Strain/Indicator: TA1535, Metabolic Activation: HAMSTER, LIVER, S-9, AROCLOR 1254 (10 OR 30%), Method: PREINCUBATION
[10] = Test System: AMES SALMONELLA TYPHIMURIUM, Strain/Indicator: TA1535, Metabolic Activation: NONE, Method: PREINCUBATION
[11] = Test System: AMES SALMONELLA TYPHIMURIUM, Strain/Indicator: TA1535, Metabolic Activation: RAT, LIVER, S-9, AROCLOR 1254 (10 OR 30%), Method: PREINCUBATION
[12] = Test System: AMES SALMONELLA TYPHIMURIUM, Strain/Indicator: TA98, Metabolic Activation: RAT, LIVER, S-9, AROCLOR 1254, Method: STANDARD PLATE
[13] = Test System: AMES SALMONELLA TYPHIMURIUM, Strain/Indicator: TA100, Metabolic Activation: RAT, LIVER, S-9, AROCLOR 1254, Method: STANDARD PLATE
[14] = Test System: AMES SALMONELLA TYPHIMURIUM, Strain/Indicator: TA98, Metabolic Activation: NONE, Method: STANDARD PLATE
[15] = Test System: AMES SALMONELLA TYPHIMURIUM, Strain/Indicator: TA100, Metabolic Activation: NONE, Method: STANDARD PLATE

CCC(C)(C)C
mutagenic call [1]: inactive; negative
mutagenic call [2]: inactive; negative
mutagenic call [3]: inactive; negative
mutagenic call (Test System: AMES SALMONELLA TYPHIMURIUM, Strain/Indicator: TA98, Metabolic Activation: HAMSTER, LIVER, S-9, AROCLOR 1254 (10%), Method: PREINCUBATION): inactive; negative
mutagenic call (Test System: AMES SALMONELLA TYPHIMURIUM, Strain/Indicator: TA98, Metabolic Activation: HAMSTER, LIVER, S-9, AROCLOR 1254 (30%), Method: DESICCATOR): inactive; negative
mutagenic call [4]: inactive; negative
mutagenic call (Test System: AMES SALMONELLA TYPHIMURIUM, Strain/Indicator: TA98, Metabolic Activation: NONE, Method: DESICCATOR): inactive; negative
mutagenic call [5]: inactive; negative
mutagenic call (Test System: AMES SALMONELLA TYPHIMURIUM, Strain/Indicator: TA98, Metabolic Activation: RAT, LIVER, S-9, AROCLOR 1254 (10%), Method: PREINCUBATION): inactive; negative
mutagenic call (Test System: AMES SALMONELLA TYPHIMURIUM, Strain/Indicator: TA98, Metabolic Activation: RAT, LIVER, S-9, AROCLOR 1254 (30%), Method: DESICCATOR): inactive; negative
mutagenic call (Test System: AMES SALMONELLA TYPHIMURIUM, Strain/Indicator: TA98, Metabolic Activation: RAT, LIVER, S-9, AROCLOR 1254 (30%), Method: PREINCUBATION): inactive; negative
mutagenic call (Test System: AMES SALMONELLA TYPHIMURIUM, Strain/Indicator: TA100, Metabolic Activation: HAMSTER, LIVER, S-9, AROCLOR 1254 (10%), Method: PREINCUBATION): inactive; negative
mutagenic call (Test System: AMES SALMONELLA TYPHIMURIUM, Strain/Indicator: TA100, Metabolic Activation: HAMSTER, LIVER, S-9, AROCLOR 1254 (30%), Method: DESICCATOR): inactive; negative
mutagenic call [6]: inactive; negative
mutagenic call (Test System: AMES SALMONELLA TYPHIMURIUM, Strain/Indicator: TA100, Metabolic Activation: NONE, Method: DESICCATOR): inactive; negative
mutagenic call [7]: inactive; negative
mutagenic call (Test System: AMES SALMONELLA TYPHIMURIUM, Strain/Indicator: TA100, Metabolic Activation: RAT, LIVER, S-9, AROCLOR 1254 (10%), Method: PREINCUBATION): inactive; negative
mutagenic call (Test System: AMES SALMONELLA TYPHIMURIUM, Strain/Indicator: TA100, Metabolic Activation: RAT, LIVER, S-9, AROCLOR 1254 (30%), Method: DESICCATOR): inactive; negative
mutagenic call [8]: inactive; negative
mutagenic call [9]: inactive; negative
mutagenic call [10]: inactive; negative
mutagenic call [11]: inactive; negative

O=[N+]([O-])c1cccc(-c2ccc(O)c([N+](=O)[O-])c2)c1
mutagenic call [5]: active; positive

c1cc2ccc3cccc4ncc(c1)c2c34
mutagenic call [12]: active; positive
mutagenic call [13]: active; positive

CC(=O)OO
mutagenic call [1]: inactive; negative
mutagenic call [2]: inactive; negative
mutagenic call [3]: inactive; negative
mutagenic call (Test System: AMES SALMONELLA TYPHIMURIUM, Strain/Indicator: TA98, Metabolic Activation: HAMSTER, LIVER, S-9, AROCLOR 1254 (10 OR 30%), Method: PREINCUBATION): inactive; negative
mutagenic call [5]: inactive; negative
mutagenic call (Test System: AMES SALMONELLA TYPHIMURIUM, Strain/Indicator: TA98, Metabolic Activation: RAT, LIVER, S-9, AROCLOR 1254 (10 OR 30%), Method: PREINCUBATION): inactive; negative
mutagenic call (Test System: AMES SALMONELLA TYPHIMURIUM, Strain/Indicator: TA100, Metabolic Activation: HAMSTER, LIVER, S-9, AROCLOR 1254 (10 OR 30%), Method: PREINCUBATION): inactive; negative
mutagenic call [7]: inactive; negative
mutagenic call (Test System: AMES SALMONELLA TYPHIMURIUM, Strain/Indicator: TA100, Metabolic Activation: RAT, LIVER, S-9, AROCLOR 1254 (10 OR 30%), Method: PREINCUBATION): inactive; negative
mutagenic call [9]: inactive; negative
mutagenic call [10]: inactive; negative
mutagenic call [11]: inactive; negative

Cc1cc(C)cc(C)c1
mutagenic call (Test System: AMES SALMONELLA TYPHIMURIUM, Strain/Indicator: TA97A, Metabolic Activation: NONE, Method: STANDARD PLATE): inactive; negative
mutagenic call (Test System: AMES SALMONELLA TYPHIMURIUM, Strain/Indicator: TA97A, Metabolic Activation: RAT, LIVER, S-9, AROCLOR 1254, Method: STANDARD PLATE): inactive; negative
mutagenic call [14]: inactive; negative
mutagenic call [12]: inactive; negative
mutagenic call [15]: inactive; negative
mutagenic call [13]: inactive; negative
mutagenic call (Test System: AMES SALMONELLA TYPHIMURIUM, Strain/Indicator: TA102, Metabolic Activation: NONE, Method: STANDARD PLATE): inactive; negative
mutagenic call (Test System: AMES SALMONELLA TYPHIMURIUM, Strain/Indicator: TA102, Metabolic Activation: RAT, LIVER, S-9, AROCLOR 1254, Method: STANDARD PLATE): inactive; negative

O=C1CCC(=O)N1c1ccc(Cl)cc1
mutagenic call [14]: inactive; negative
mutagenic call [12]: inactive; negative
mutagenic call [15]: inactive; negative
mutagenic call [13]: inactive; negative

COc1ccc(OC)c(N=Nc2c(O)ccc3ccccc23)c1
mutagenic call [4]: active; positive
mutagenic call [5]: inactive; negative
mutagenic call [6]: active; positive
mutagenic call [7]: inactive; negative
mutagenic call [8]: active; positive

Oc1cc(Cl)cc(Cl)c1O
mutagenic call (Test System: CHINESE HAMSTER V-79, Strain/Indicator: V-79/6-THIOGUANINE, Metabolic Activation: CELL MEDIATED, Method: STANDARD PLATE): inactive; negative
mutagenic call (Test System: CHINESE HAMSTER V-79, Strain/Indicator: V-79/6-THIOGUANINE, Metabolic Activation: NONE, Method: STANDARD PLATE): inactive; negative

CC1c2ccccc2-c2ccccc21
mutagenic call [13]: active; positive

NC(=O)CC[C@H](N)C(=O)O
mutagenic call (End Point: In vitro chromosomal aberrations, Test System: Chinese hamster ovary (CHO) cells, Metabolic Activation: None): inactive; negative; glutamine, alone or in combination with vitamin c, reduced effect of d
mutagenic call (End Point: In vivo chromosomal aberrations, Test System: Bone marrow cells, Species: Rat, Strain/Sex: Wistar/Male and female, Route: Oral): inactive; negative; glutamine, alone or with vitamin c, reduced effect of doxorubicin
mutagenic call (End Point: In vivo micronucleus, Test System: Peripheral blood cells, Species: Mouse, Strain/Sex: Swiss/Male, Route: Oral): inactive; negative

COc1ccc2nc3cc(Cl)ccc3c(NCCCNCCCl)c2n1
mutagenic call [14]: active; positive
mutagenic call [15]: active; positive
mutagenic call (Test System: AMES SALMONELLA TYPHIMURIUM, Strain/Indicator: TA1535, Metabolic Activation: NONE, Method: STANDARD PLATE): inactive; negative
mutagenic call (Test System: AMES SALMONELLA TYPHIMURIUM, Strain/Indicator: TA1536, Metabolic Activation: NONE, Method: STANDARD PLATE): active; positive
mutagenic call (Test System: AMES SALMONELLA TYPHIMURIUM, Strain/Indicator: TA1537, Metabolic Activation: NONE, Method: STANDARD PLATE): active; positive
mutagenic call (Test System: AMES SALMONELLA TYPHIMURIUM, Strain/Indicator: TA1538, Metabolic Activation: NONE, Method: STANDARD PLATE): active; positive
mutagenic call (Test System: CHO/HGPRT, Strain/Indicator: CHO-K1-BH4, Metabolic Activation: NONE, Method: STANDARD PLATE): active; positive
